{"source": "patent US20180296523A1", "about": "“USE OF POLYMETHOXYLATED FLAVONES TO AMELIORATE CIRCADIAN RHYTHM DISORDERS” (THE BOARD OF REGENTS OF THE UNIVERSITY OF TEXAS SY, priority 2017, published 2018)", "key": {"[1]": {"system": "WT and Clock^Δ19/Δ19 mice", "experiment": "Circadian locomotor (wheel-running) activity", "type": "in vivo, mouse", "source_text": "RC-fed WT, HFD-fed WT and Clock^[…]/[…] mice with NOB or Vehicle treatment were used for circadian locomotor activity experiments. Briefly, mice were first maintained for at least 2 weeks in a 12 hr:12 hr light:dark (LD) cycle, then released into the constant darkness, free-running condition. The mice were then maintained in constant darkness for another 2 weeks. Wheel-running data was downloaded as VitalView data files and analyzed with the […] and Actogram J program (Schmid et al., 2011; Zheng et al., 1999)."}, "regular chow-fed mice": {"system": "regular chow-fed mice", "experiment": "Metabolic homeostasis in regular chow-fed mice", "type": "in vivo, mouse", "details": "regular chow (RC) feeding, 9-week treatment", "description": "Weekly body weight was monitored in different treatment mice for 10 weeks. Body mass composition was measured at the end of experiments using a minispec mqNMR spectrometer (Bruker Optics, Texas) (Garcia et al., 2013). A control group of mice were fed with regular chow diet (Purina 5001) in parallel with the two treatment groups in HFD. For db/db and db/db Clock^Δ19/Δ19 mice, male mice at 6-8 weeks of age were group-housed (2-3/cage) and maintained on regular chow diets. Mice were subjected to oral gavage with either DMSO or NOB as described above.\nGlucose tolerance test (GTT) and insulin tolerance test (ITT) were performed largely as described (He et al., 2015; Jeong et al., 2015). Briefly, after overnight and 5-hr fasting, GTT and ITT were conducted at ZT2 and ZT8 respectively. Glucose levels were measured from tail blood before and 15, 30, 60, or 120 min after injection of either 1 g/kg glucose or 0.75 U/kg insulin (Sigma) at ZT2 and ZT8 respectively by using the ONETOUCH UltraMini blood glucose monitoring system (LifeScan). Serum insulin levels were measured with the Rat/Mouse Insulin Elisa kit (Millipore) according to the manufacturer's instructions. The plasma samples were collected at ZT2 as described above for lipid assays."}, "[2]": {"system": "clock genes and metabolic output genes in mouse liver", "experiment": "Liver gene expression in HFD-fed WT mice (qPCR, Western blot, microarray)", "type": "in vivo", "description": "For qPCR analysis, cells were split into 6-well plates at an initial density of 3×10^5 cells and incubated for 2-4 days before synchronization (5 μM Fsk or 100 nM Dex) followed by compound treatment. RNA samples were prepared by using PureXtract RNAsol for cDNA synthesis and real-time PCR (GenDEPOT) was performed with a MaxPro3000 Thermocycler (Agilent). qPCR primers used are listed in the table shown in Example 4. Whole cell lysates from cells similarly grown and treated in 60 mm dishes and tissue extracts were prepared as described (Yoo et al., 2013) and subjected to Western blot analysis (GenDEPOT). Antibodies for REV-ERBα (Pierce and Cell Signaling), PER1 (Lee et al., 2001) and other clock proteins (Yoo et al., 2013) were used. Total RNAs prepared from liver tissues from RC-fed, Vehicle-treated and HFD-fed, Vehicle or NOB-treated WT mice for 10 weeks were reverse transcribed into cDNAs, which were then biotin-UTP labeled and hybridized to the Illumina mouse WG-6v2.0 Expression BeadChip. Genes with statistically significant fold change differences was clustered using centered correlation (Cluster 3.0) and then visualized as a heat map on Tree View. Moreover, genes with statistically significant differences derived from microarray analyses were imported into the Ingenuity Pathway Analysis (IPA, http://www.ingenuity.com). In IPA, differentially expressed genes are mapped to genetic networks in the Ingenuity Knowledge Database to generate a set of network and then ranked by score. Heatmaps were generated by using Cluster 3.0 program. ChIP-seq data analysis was conducted as previously described (Koike et al., 2012). The data discussed in this publication have been deposited in NCBI's Gene Expression Omnibus (Edgar et al., 2002) and are accessible through GEO Series accession number GSE78848. To characterize the molecular basis of nobiletin action in HFD-fed WT mice, studies focused on a major metabolic organ, the liver, in which we observed a strong protection by nobiletin was observed. Specifically, total RNAs prepared from liver tissues from RC.Veh and HF.Veh or HF.nobiletin WT mice for 10 weeks were reverse transcribed into cDNAs, which were then biotin-UTP labeled and hybridized to the Illumina mouse WG-6v2.0 Expression BeadChip. The data discussed in this publication have been deposited in the National Center for Biotechnology Information's Gene Expression Omnibus (GEO) and are accessible through GEO Series accession number GSE78848. Real-time qPCR and western blotting analyses of circadian gene expression were conducted as previously described (Yoo et al., 2013). Primers used were as follows: […]"}, "RORγt": {"molecular_target": "T1, RORγt (Homo sapiens, UniProt P51449)", "T1 sequence (P51449 1-497 isoform P51449-2)": "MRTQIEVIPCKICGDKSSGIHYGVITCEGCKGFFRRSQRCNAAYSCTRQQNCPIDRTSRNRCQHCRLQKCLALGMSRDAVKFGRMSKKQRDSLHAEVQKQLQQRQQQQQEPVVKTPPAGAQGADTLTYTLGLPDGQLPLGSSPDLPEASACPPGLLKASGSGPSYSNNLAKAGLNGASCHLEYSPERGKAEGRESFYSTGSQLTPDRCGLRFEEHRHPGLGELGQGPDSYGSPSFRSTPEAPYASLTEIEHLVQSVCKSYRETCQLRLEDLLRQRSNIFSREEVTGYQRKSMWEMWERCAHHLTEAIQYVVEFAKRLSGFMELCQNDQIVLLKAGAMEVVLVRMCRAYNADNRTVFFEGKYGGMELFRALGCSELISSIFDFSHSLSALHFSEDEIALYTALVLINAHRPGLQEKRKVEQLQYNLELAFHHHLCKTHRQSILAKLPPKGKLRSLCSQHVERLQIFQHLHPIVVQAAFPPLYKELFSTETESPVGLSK", "details": "Huh et al., 2011; cited from earlier work"}, "[3]": {"details": "HF.nobiletin versus HF.Veh mice"}}}
{"smiles": "COc1ccc(-c2cc(=O)c3c(OC)c(OC)c(OC)c(OC)c3o2)cc1OC", "note": "[nobiletin]", "values": [{"measurement": "wheel-running activity levels", "setting": "[1]; HFD-fed Clock^Δ19/Δ19 mice", "value": "no significant difference in activity levels"}, {"measurement": "wheel-running activity levels", "setting": "[1]; HFD-fed WT mice, vs control treatment", "value": "greatly increased wheel-running activity levels"}, {"measurement": "wheel-running activity and periodicity", "setting": "[1]; RC-fed WT C57/6J mice", "value": "normal wheel-running activity and periodicity"}, {"measurement": "metabolic homeostasis", "setting": "regular chow-fed mice", "value": "did not show significantly beneficial effects"}, {"measurement": "metabolic homeostasis", "setting": "regular chow-fed mice; listed as NOB", "value": "did not effect metabolic homeostasis"}, {"measurement": "ROR target genes (e.g., Cyp7b1, IkBa, and Gck)", "setting": "[2]; DIO mouse liver, relative to control treatment", "value": "induced"}, {"measurement": "circadian clock transcript oscillations in liver", "setting": "[2]; [3]", "value": "improved circadian clock transcript oscillations"}, {"measurement": "clock protein rhythms in liver", "setting": "[2]; [3]", "value": "largely restored clock protein rhythms"}, {"measurement": "transcript expression of Cidec/Fsp27 in liver", "setting": "[2]; HFD-fed WT mice, qPCR", "value": "reverted back to baseline levels"}, {"measurement": "expression of genes involved in gluconeogenesis and glycolysis (e.g., Pdk4 and Pkm2)", "setting": "[2]; liver", "value": "altered the expression"}, {"measurement": "effect on RORγt in primary screen", "setting": "RORγt", "value": "activated RORγt"}]}
